According to patent US11076594B2, “Pyrazolone compound or salt thereof, preparation method therefor, herbicide composition and use thereof” (QINGDAO KINGAGROOT CHEMICAL COMPOUNDS CO., LTD., priority 2015, dated 2021):

Experiments:
Type in all cases: in vivo
Details in all cases: post-emergence spray at 4-5 leaf stage, 250 g/ha active ingredient with 450 kg/ha water, rated after 3 weeks in greenhouse
[1] = test system: rice; assay: post-emergence stage experiment, crop (Table 1); parameters: key: Level 10: completely dead; Level 9: above 95% growth control rate; Level 8: above 90% growth control rate; Level 7: above 80% growth control rate; Level 6: above 70% growth control rate; Level 5: above 60% growth control rate; Level 4: above 50% growth control rate; Level 3: above 20% growth control rate; Level 2: 5%-20% growth control rate; Level 1: below 5% growth control rate
Method: (§1) The activity level standard of harmful plant destruction (i.e. growth control rate) is as follows: The above described growth control rate is fresh weight control rate. Monocotyledonous and dicotyledonous weed seeds and main crop seeds (i.e. wheat, corn, rice, soybean, cotton, oilseed, millet and sorghum.) were put into a plastic pot loaded with soil. Then covered with 0.5-2 cm soil, the seeds were allowed to grow in good greenhouse environment. The test plants were treated at 4-5 leaf stage 2-3 weeks after sowing. The test compounds of the invention were dissolved with acetone respectively, then added with 80 tween and diluted by certain amount of water to certain concentration. The solution was sprayed to the plants with a sprayer. Then the plants were cultured for 3 weeks in the greenhouse.

[2] = test system: corn; assay: post-emergence stage experiment, crop (Table 1)
Method: as §1

[3] = test system: wheat; assay: post-emergence stage experiment, crop (Table 1)
Method: as §1

[4] = test system: rorippa indica; assay: weed control effect in post-emergence stage (Table 1); parameters: key: Level 10: completely dead; Level 9: above 95% growth control rate; Level 8: above 90% growth control rate; Level 7: above 80% growth control rate; Level 6: above 70% growth control rate; Level 5: above 60% growth control rate; Level 4: above 50% growth control rate; Level 3: above 20% growth control rate; Level 2: 5%-20% growth control rate; Level 1: below 5% growth control rate
Method: as §1

[5] = test system: bidens bipinnata; assay: as above; parameters: key: Level 10: completely dead; Level 9: above 95% growth control rate; Level 8: above 90% growth control rate; Level 7: above 80% growth control rate; Level 6: above 70% growth control rate; Level 5: above 60% growth control rate; Level 4: above 50% growth control rate; Level 3: above 20% growth control rate; Level 2: 5%-20% growth control rate; Level 1: below 5% growth control rate
Method: as §1

[6] = test system: crab grass; assay: as above; parameters: key: Level 10: completely dead; Level 9: above 95% growth control rate; Level 8: above 90% growth control rate; Level 7: above 80% growth control rate; Level 6: above 70% growth control rate; Level 5: above 60% growth control rate; Level 4: above 50% growth control rate; Level 3: above 20% growth control rate; Level 2: 5%-20% growth control rate; Level 1: below 5% growth control rate
Method: as §1

[7] = test system: foxtail; assay: as above; parameters: key: Level 10: completely dead; Level 9: above 95% growth control rate; Level 8: above 90% growth control rate; Level 7: above 80% growth control rate; Level 6: above 70% growth control rate; Level 5: above 60% growth control rate; Level 4: above 50% growth control rate; Level 3: above 20% growth control rate; Level 2: 5%-20% growth control rate; Level 1: below 5% growth control rate
Method: as §1

[8] = test system: Indian mallow; assay: as above; parameters: key: Level 10: completely dead; Level 9: above 95% growth control rate; Level 8: above 90% growth control rate; Level 7: above 80% growth control rate; Level 6: above 70% growth control rate; Level 5: above 60% growth control rate; Level 4: above 50% growth control rate; Level 3: above 20% growth control rate; Level 2: 5%-20% growth control rate; Level 1: below 5% growth control rate
Method: as §1

[9] = test system: echinochloa; assay: as above; parameters: key: Level 10: completely dead; Level 9: above 95% growth control rate; Level 8: above 90% growth control rate; Level 7: above 80% growth control rate; Level 6: above 70% growth control rate; Level 5: above 60% growth control rate; Level 4: above 50% growth control rate; Level 3: above 20% growth control rate; Level 2: 5%-20% growth control rate; Level 1: below 5% growth control rate
Method: as §1

Row | effect on crop, Wheat (level) [3] | SMILES | effect on crop, Rice (level) [1] | effect on crop, Corn (level) [2] | weed control effect, Rorippa indica (level) [4] | weed control effect, Bidens bipinnata (level) [5] | weed control effect, Crab grass (level) [6] | weed control effect, Green foxtail (level) [7] | weed control effect, Indian mallow (level) [8] | weed control effect, Echinochloa (level) [9]
1 | 0 | CCOC(=O)Oc1c(C(=O)c2ccc(C(F)(F)F)c(-n3cc(C)cn3)c2Cl)c(C)nn1C [Compound 085] | 6 (Level 6: above 70% growth control rate) | 0 | 2 (Level 2: 5%-20% growth control rate) | 10 | 8 (Level 8: above 90% growth control rate) | 10 | 10 | 9 (Level 9: above 95% growth control rate)
2 | 0 | Cc1cnn(-c2c(C(F)(F)F)ccc(C(=O)c3c(C4CC4)nn(C)c3O)c2Cl)c1 [Compound 089] | 1 (Level 1: below 5% growth control rate) | 1 (Level 1: below 5% growth control rate) | 9 (Level 9: above 95% growth control rate) | 3 (Level 3: above 20% growth control rate) | 1 (Level 1: below 5% growth control rate) | 2 (Level 2: 5%-20% growth control rate) | 10 | 5 (Level 5: above 60% growth control rate)
3 | 0 | CCOC(=O)Oc1c(C(=O)c2ccc(C(F)(F)F)c(N3CCCCCC3=O)c2Cl)c(C)nn1C [Compound 055] | 6 (Level 6: above 70% growth control rate) | 0 | 2 (Level 2: 5%-20% growth control rate) | 10 | 4 (Level 4: above 50% growth control rate) | 9 (Level 9: above 95% growth control rate) | 10 | 8 (Level 8: above 90% growth control rate)
4 | 0 | Cc1nn(C)c(OC(=O)c2cnn(C)c2)c1C(=O)c1ccc(C(F)(F)F)c(N2CCCCCC2=O)c1Cl [Compound 057] | 3 (Level 3: above 20% growth control rate) | 0 | 10 | 5 (Level 5: above 60% growth control rate) | 1 (Level 1: below 5% growth control rate) | 1 (Level 1: below 5% growth control rate) | 10 | 4 (Level 4: above 50% growth control rate)
5 | 2 (Level 2: 5%-20% growth control rate) | CCn1nc(C)c(C(=O)c2ccc(C(F)(F)F)c(-n3cc(C)cn3)c2Cl)c1OC(=O)c1cn(C)nc1C [Compound 139] | 9 (Level 9: above 95% growth control rate) | 4 (Level 4: above 50% growth control rate) | 10 | 5 (Level 5: above 60% growth control rate) | 8 (Level 8: above 90% growth control rate) | 10 | 3 (Level 3: above 20% growth control rate) | 10

Second part, the compound before the results:

Row | SMILES | effect on crop, Wheat (level) [3] | effect on crop, Rice (level) [1] | effect on crop, Corn (level) [2] | weed control effect, Rorippa indica (level) [4] | weed control effect, Bidens bipinnata (level) [5] | weed control effect, Crab grass (level) [6] | weed control effect, Green foxtail (level) [7] | weed control effect, Indian mallow (level) [8] | weed control effect, Echinochloa (level) [9]
6 | CCOc1c(C(=O)Oc2c(C(=O)c3ccc(C(F)(F)F)c(-n4cccn4)c3Cl)c(C3CC3)nn2C)cnn1C [Compound 074] | 1 (Level 1: below 5% growth control rate) | 9 (Level 9: above 95% growth control rate) | 3 (Level 3: above 20% growth control rate) | 10 | 4 (Level 4: above 50% growth control rate) | 4 (Level 4: above 50% growth control rate) | 9 (Level 9: above 95% growth control rate) | 10 | 6 (Level 6: above 70% growth control rate)
7 | CCn1ncc(C(=O)c2ccc(C(F)(F)F)c(-n3cc(C)cn3)c2Cl)c1OC(=O)c1cn(C)nc1C [Compound 137] | 3 (Level 3: above 20% growth control rate) | 8 (Level 8: above 90% growth control rate) | 5 (Level 5: above 60% growth control rate) | 8 (Level 8: above 90% growth control rate) | 10 | 7 (Level 7: above 80% growth control rate) | 10 | 10 | 10
8 | CCn1nc(C2CC2)c(C(=O)c2ccc(C(F)(F)F)c(N3CCCCCC3=O)c2Cl)c1OC(=O)c1cn(C)nc1C [Compound 125] | 2 (Level 2: 5%-20% growth control rate) | 10 | 5 (Level 5: above 60% growth control rate) | 4 (Level 4: above 50% growth control rate) | 10 | 10 | 10 | 10 | 8 (Level 8: above 90% growth control rate)
9 | CCn1nc(C2CC2)c(C(=O)c2ccc(C(F)(F)F)c(N3CCCC3=O)c2Cl)c1OC(=O)c1cn(C)nc1C [Compound 105] | 5 (Level 5: above 60% growth control rate) | 10 | 5 (Level 5: above 60% growth control rate) | 10 | 10 | 10 | 10 | 9 (Level 9: above 95% growth control rate) | 10
10 | Cn1ncc(C(=O)c2ccc(C(F)(F)F)c(N3CCCC3=O)c2Cl)c1O [Compound 014] | 3 (Level 3: above 20% growth control rate) | 3 (Level 3: above 20% growth control rate) | 8 (Level 8: above 90% growth control rate) | 10 | 8 (Level 8: above 90% growth control rate) | 10 | 10 | 7 (Level 7: above 80% growth control rate) | 5 (Level 5: above 60% growth control rate)
11 | CCn1ncc(C(=O)c2ccc(C(F)(F)F)c(-n3cccn3)c2Cl)c1OC(=O)c1cn(C)nc1C [Compound 127] | 1 (Level 1: below 5% growth control rate) | 7 (Level 7: above 80% growth control rate) | 1 (Level 1: below 5% growth control rate) | 10 | 10 | 3 (Level 3: above 20% growth control rate) | 10 | 10 | 10
